Where two headings read alike, the source gives them in different places. Each block holds one molecule with its values, some of them ahead of it.
Assays:
5-lipoxygenase = biological target: T1, 5-lipoxygenase (Rattus norvegicus, UniProt P12527); test: ARBL whole cell 5-lipoxygenase assay (inhibition of LTB4 formation in RBL-1 cells); assay type: cell-based; details: for IC50: A23187 stimulated, read-out: ARBL: IC50 (50% inhibition of LTB4 formation)
T1 construct: host or cells: RBL-1 (rat basophilic leukemia)
T1 sequence (P12527 1-673): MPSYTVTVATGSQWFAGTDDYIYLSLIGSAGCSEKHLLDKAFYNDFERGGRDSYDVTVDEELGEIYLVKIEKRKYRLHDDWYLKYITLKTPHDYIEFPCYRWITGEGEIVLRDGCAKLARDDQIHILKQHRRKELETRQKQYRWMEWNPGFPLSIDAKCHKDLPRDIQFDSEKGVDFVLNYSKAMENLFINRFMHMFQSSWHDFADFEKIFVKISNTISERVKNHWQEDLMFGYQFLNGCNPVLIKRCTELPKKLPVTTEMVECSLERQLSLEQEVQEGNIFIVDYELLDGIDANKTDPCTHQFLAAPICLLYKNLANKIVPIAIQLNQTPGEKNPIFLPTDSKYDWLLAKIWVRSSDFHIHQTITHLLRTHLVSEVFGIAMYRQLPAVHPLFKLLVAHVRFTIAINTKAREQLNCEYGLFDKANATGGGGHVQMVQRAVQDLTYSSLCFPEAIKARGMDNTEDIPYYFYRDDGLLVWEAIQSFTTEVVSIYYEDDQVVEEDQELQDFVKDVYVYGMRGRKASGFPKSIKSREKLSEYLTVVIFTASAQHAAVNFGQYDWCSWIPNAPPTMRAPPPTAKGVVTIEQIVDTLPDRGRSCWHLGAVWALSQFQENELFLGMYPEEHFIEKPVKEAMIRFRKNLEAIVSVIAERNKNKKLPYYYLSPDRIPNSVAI
Method: (§1) The rat basophilic leukemia cell line (RBL-1) was obtained from the American Type Culture Collection (Rockville, Md.).
(§2) Radioimmunoassay (RIA) kits of LTB4 and PGF2α were obtained from Amersham (Arlington Heights, Ill.) and Seragen (Boston, Mass.), respectively.
(§3) All tissue culture media were obtained from GIBCO (Grand Island, N.Y.).
(§4) RBL-1 cells are grown in suspension culture in Eagles minimum essential medium supplemental with 12% fetal bovine serum at 37° C. in an incubator supplied with air--5% carbon dioxide. Cells are harvested by centrifugation. They are washed with cold phosphate-buffered saline, pH 7.4 (PBS; NaCl, 7.1 g; Na2 HPO4, 1.15 g; KH2 PO4, 0.2 g; and KCl, 0.2 g/L). Cells are incubated with and without test agent (in DMSO) (1% DMSO is without effect on arachidonic acid metabolism) for 10 minutes at room temperature. Calcium ionophore A23187 (5 μM) is added and cells are incubated for 7 minutes at 37° C. The reaction is stopped by chilling the tubes on ice for 10 minutes. Cells are finally suspended in PBS containing 1.0 mM calcium at a density of 2×10^6 cells/mL. Cells are separated by centrifugation and the supernatant is stored at -20° C. Aliquots (100 μL) are analyzed for LTB4 and PGF2α using radioimmunoassay kits as provided by the supplier.
(§5) Table 1 contains biochemical data for compounds of formula I obtained from this whole cell assay as IC50 s which are calculated as the concentration of a test compound in micromoles (μM) causing 50% inhibition of LTB4 or PGF2α formation.

cyclooxygenase = biological target: T2, cyclooxygenase (Rattus norvegicus, UniProt Q63921); test: ARBC whole cell cyclooxygenase assay (inhibition of PGF2α formation in RBL-1 cells); assay type: cell-based; details: for IC50: A23187 stimulated, Table 2 (formula II), read-out: ARBC: IC50 (50% inhibition of PGF2α formation)
T2 construct: host or cells: RBL-1 (rat basophilic leukemia)
T2 sequence (Q63921 27-602): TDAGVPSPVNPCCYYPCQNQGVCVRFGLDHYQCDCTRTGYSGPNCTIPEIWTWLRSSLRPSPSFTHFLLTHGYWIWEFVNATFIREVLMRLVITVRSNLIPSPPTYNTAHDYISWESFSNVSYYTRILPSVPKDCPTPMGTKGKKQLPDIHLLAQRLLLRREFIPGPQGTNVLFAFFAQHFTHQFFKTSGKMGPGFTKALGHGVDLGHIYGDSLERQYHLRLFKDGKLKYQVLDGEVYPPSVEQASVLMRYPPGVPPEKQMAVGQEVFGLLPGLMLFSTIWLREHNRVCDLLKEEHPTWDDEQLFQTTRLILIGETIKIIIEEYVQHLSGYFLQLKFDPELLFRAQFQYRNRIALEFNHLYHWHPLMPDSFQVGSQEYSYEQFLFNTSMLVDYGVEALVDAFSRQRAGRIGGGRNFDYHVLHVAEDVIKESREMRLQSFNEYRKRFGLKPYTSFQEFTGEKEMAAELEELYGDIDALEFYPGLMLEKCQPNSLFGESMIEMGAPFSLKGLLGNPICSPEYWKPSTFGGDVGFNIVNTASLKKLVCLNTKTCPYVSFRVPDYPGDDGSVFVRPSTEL
Method: as §1, §2, §3, §4, §5

[1] = read-out: ARBL: % inhibition of LTB4 at 10 μM, 10 μM, A23187 stimulated, Table 2 (formula II)
[2] = read-out: ARBC: % inhibition of PGF2α at 10 μM, 10 μM, A23187 stimulated, Table 2 (formula II)
[3] = read-out: ARBL: % inhibition of LTB4 at 10 μM, 10 μM, A23187 stimulated, Table 1 (formula I)
[4] = read-out: ARBC: % inhibition of PGF2α at 10 μM, 10 μM, A23187 stimulated, Table 1 (formula I)

Structure (SMILES): O=C1NC(=S)S/C1=C\c1ccccc1Nc1cccc(C(F)(F)F)c1 [Example 2, (Z)-2-Thioxo-5-[[2-[[3-(trifluoromethyl)phenyl]amino]phenyl]methylene]-4-thiazolidinone]
inhibition at 10 µM (5-lipoxygenase; [1]): < 40%
inhibition at 10 µM (cyclooxygenase; [2]): < 40%

Structure (SMILES): CN1C(=O)/C(=C/c2ccccc2Nc2cccc(C(F)(F)F)c2)SC1=S [Example 4]
inhibition at 10 µM (5-lipoxygenase; [3]): < 40%
inhibition at 10 µM (cyclooxygenase; [4]): < 40%

Structure (SMILES): O=C1NC(=O)/C(=C/c2ccccc2Nc2cccc(C(F)(F)F)c2)S1 [Example 9, (Z)-5-[[2-[[3-(Trifluoromethyl)phenyl]amino]phenyl]methylene]-2,4-thiazolidinedione]
inhibition at 10 µM (5-lipoxygenase; [1]): < 40%
inhibition at 10 µM (cyclooxygenase; [2]): < 40%

Structure (SMILES): Cc1ccc(Cl)c(Nc2ccccc2/C=C2\SC(=S)N(CC(=O)O)C2=O)c1Cl [Example 10, (Z)-5-[[2-[[2-Dichloro-3-methylphenyl)-amino]phenyl]methylene]-4-oxo-2-thioxo-3-thiazolidine acetic acid]
IC50 (5-lipoxygenase; Table 1 (formula I)): 2180 nM
inhibition at 10 µM (cyclooxygenase; [4]): < 40%

Structure (SMILES): CC(C)(C)c1cc(Nc2ccccc2/C=C2\SC(=S)NC2=O)cc(C(C)(C)C)c1O [Example 12]
IC50 (5-lipoxygenase; Table 2 (formula II)): 1470 nM
IC50 (cyclooxygenase): 2250 nM

Results, then the molecule that gave them:

IC50 (5-lipoxygenase; Table 2 (formula II)): 820 nM
IC50 (cyclooxygenase): 5960 nM
Structure (SMILES): Cc1ccc(Cl)c(Nc2ccccc2/C=C2\SC(=S)NC2=O)c1Cl [Example 1, (Z)-5-[[2-[(2,6-Dichloro-3-methylphenyl)amino]phenyl]methylene]-2-thioxo-4-thiazolidinone]

inhibition at 10 µM (5-lipoxygenase; [3]): 100%
inhibition at 10 µM (cyclooxygenase; [4]): < 40%
Structure (SMILES): Cc1ccc(Cl)c(Nc2ccccc2/C=C2\SC(=S)N(C)C2=O)c1Cl [Example 3, (Z)-5-[[2-[(2,6-Dichloro-3-methylphenyl)amino]phenyl]methylene]-3-methyl-2-thioxo-4-thiazolidinone]

inhibition at 10 µM (5-lipoxygenase; [1]): < 40%
inhibition at 10 µM (cyclooxygenase; [2]): < 40%
Structure (SMILES): Cc1ccc(Cl)c(Nc2ccccc2/C=C2\SC(=N)NC2=O)c1Cl [Example 5, (Z)-5-[[2-[(2,6-Dichloro-3-methylphenyl)amino]phenyl]methylene]-2-imino-4-thiazolidinone]

inhibition at 10 µM (5-lipoxygenase; [1]): 100%
inhibition at 10 µM (cyclooxygenase; [2]): < 40%
Structure (SMILES): CSC1=NC(=O)/C(=C/c2ccccc2Nc2c(Cl)ccc(C)c2Cl)S1 [Example 6, (Z)-5-[[2-[(2,6-Dichloro-3-methylphenyl)amino]phenyl]methylene]-2-(methylthio)-4(5H)-thiazolone]

inhibition at 10 µM (5-lipoxygenase; [1]): 55%
inhibition at 10 µM (cyclooxygenase; [2]): < 40%
Structure (SMILES): Cc1ccc(Cl)c(Nc2ccccc2/C=C2\SC(=O)NC2=O)c1Cl [Example 7, (Z)-5-[[2-[(2,6-Dichloro-3-methylphenyl)amino]phenyl]methylene]-2,4-thiazolidinedinone]

IC50 (5-lipoxygenase; Table 2 (formula II)): 1480 nM
IC50 (cyclooxygenase): 10200 nM
Structure (SMILES): Cc1ccc(Cl)c(Nc2ccccc2/C=C2\SC(NC#N)=NC2=O)c1Cl [Example 8]

Reference: US5143929A, “2-substituted thiazolidinone, oxazolidinone, and imidazolidinone derivatives of fenamates as antiinflammatory agents” (Warner-Lambert Company, priority 1991, dated 1992)
